Reference: patent US12264146B2, “Rho kinase inhibitor, method for preparing same and uses thereof” (BEIJING INCREASE INNOVATIVE DRUG CO., LTD., priority 2018, dated 2025)
Where a name gives a salt, the structure may show the parent alone.

Key:
endothelin (ET-1) = test: Expression of endothelin (ET-1) in EA.Hy926 endothelial cells, detection kit; type: cell-based, human; details: 48 h; for expression of endothelin in endothelial cells: Detection result of test compound at low dose (0.4 μM) / expression of endothelin in endothelial cells: Detection result of test compound at medium dose (2 μM) / expression of endothelin in endothelial cells: Detection result of test compound at high dose (10 μM): EA.Hy926 cell supernatant
Protocol: (§1) Commercially available cytokine kits were used to detect the effects of the compounds of the present application on vascular endothelium-derived contracting factor endothelin, vascular endothelium-derived relaxing factor endothelial nitric oxide synthase, nitric oxide, and prostacyclin factor. The detection was performed according to the kit instructions. When testing the effect of the compound of the present application on cytokines, a normal control group, a fasudil hydrochloride group, and high-, medium- and low-dose groups of the compounds of the present application were set up for testing. The fasudil hydrochloride used in this test example was purchased from Beijing Sihuan Pharmaceutical Co., Ltd., with the SFDA approval number of H20173349. The EA.Hy926 cells used in this test example were purchased from Suzhou Beina Chuanglian Biotechnology Co., Ltd.
EA.Hy926 cells were taken and inoculated in a 96-well plate at 5×10^4 cells/mL, 100 μL per well, and cultured adherently for 24 hours, then the test compound prepared in DMEM medium was added, and an equal volume of DMEM medium was added in the normal control group, then the cells were cultured at 37° C. for 48 hours, and then the cell supernatant was taken and placed in an EP tube, and centrifuged at 3000 r/min, 4° C. for 15 min. The resulting cell supernatant was transferred to a new EP tube, diluted twice with culture medium, and detected according to the instruction of the human endothelin detection kit (purchased from Wuhan Boster Biological Engineering Co., Ltd., batch number 59113731009), and the detection results were shown in Table 2.

prostacyclin (PGI2) = test: Expression of prostacyclin (PGI2) in EA.Hy926 endothelial cells, ELISA kit; type: cell-based; details: 24 h; for expression of prostacyclin in endothelial cells: Detection result of test compound at low dose (0.4 μM) / expression of prostacyclin in endothelial cells: Detection result of test compound at medium dose (2 μM) / expression of prostacyclin in endothelial cells: Detection result of test compound at high dose (10 μM): EA.Hy926 cell supernatant
Protocol: as §1
EA.Hy926 cells were taken and inoculated in a 96-well plate at 5×10^4 cells/mL, 100 μL per well, and cultured adherently for 24 hours, then the test compound prepared in DMEM medium was added, and an equal volume of DMEM medium was added in the normal control group, then the cells were cultured at 37° C. for 24 hours, and then the cell supernatant was taken and placed in an EP tube, and centrifuged for 15 min at 3000 r/min and 15° C. The resulting supernatant was transferred to a new EP tube, and then the detection was performed according to the instruction of ELISA kit (purchased from Wuhan Elabscience Biotechnology Co., Ltd., Cat. No. E-EL-0022c), and the detection results were shown in Table 3.

Q: With `CC[C@@H]1CNCCCN1S(=O)(=O)c1cccc2c(OC)nccc12` [Compound R-YK1610, (R)-5-((2-ethyl-1,4-diazacycloheptan-1-yl)sulfonyl)-1-methoxyisoquinoline] as the compound, how does the “expression of endothelin in endothelial cells: Detection result of test compound at low dose (0.4 μM)” value (“expression of endothelin … (0.4 μM)” below) (endothelin (ET-1)) read?
A: 259.20 ± 2.21 pg/mL

Q: And the “expression of endothelin in endothelial cells: Detection result of test compound at medium dose (2 μM)” value (“expression of endothelin … (2 μM)” below) (endothelin (ET-1))?
A: 260.34 ± 7.94 pg/mL

Q: What about the “expression of endothelin in endothelial cells: Detection result of test compound at high dose (10 μM)” value (“expression of endothelin … (10 μM)” for short) (endothelin (ET-1)) of the same compound?
A: 238.68 ± 3.34 pg/mL

Q: And the “expression of prostacyclin in endothelial cells: Detection result of test compound at low dose (0.4 μM)” value (“expression of prostacyclin … (0.4 μM)” for short) (prostacyclin (PGI2))?
A: 275.40 ± 9.89 pg/mL

Q: What about the “expression of prostacyclin in endothelial cells: Detection result of test compound at medium dose (2 μM)” value (shortened to “expression of prostacyclin … (2 μM)”) (prostacyclin (PGI2)) of the same compound?
A: 267.35 ± 10.69 pg/mL

Q: And the “expression of prostacyclin in endothelial cells: Detection result of test compound at high dose (10 μM)” value (“expression of prostacyclin … (10 μM)” for short) (prostacyclin (PGI2))?
A: 253.44 ± 12.48 pg/mL

Q: Which “expression of endothelin … (0.4 μM)” value (endothelin (ET-1)) does the source give for `CCCC[C@@H]1CNCCCN1S(=O)(=O)c1cccc2c(O)nccc12` [Compound R-YK1611, (R)-5-((2-butyl-1,4-diazacycloheptan-1-yl)sulfonyl)isoquinolin-1-ol] here?
A: 238.20 ± 2.28 pg/mL

Q: What about the “expression of endothelin … (2 μM)” value (endothelin (ET-1)) of the same compound?
A: 249.34 ± 7.96 pg/mL

Q: What about the “expression of endothelin … (10 μM)” value (endothelin (ET-1)) of the same compound?
A: 235.68 ± 3.34 pg/mL

Q: What about the “expression of prostacyclin … (0.4 μM)” value (prostacyclin (PGI2)) of the same compound?
A: 232.61 ± 9.70 pg/mL

Q: And the “expression of prostacyclin … (2 μM)” value (prostacyclin (PGI2))?
A: 229.98 ± 11.41 pg/mL

Q: What about the “expression of prostacyclin … (10 μM)” value (prostacyclin (PGI2)) of the same compound?
A: 249.23 ± 0.75 pg/mL

Q: Which “expression of endothelin … (0.4 μM)” value (endothelin (ET-1)) does the source give for `COc1nccc2c(S(=O)(=O)N3CCCNC[C@H]3CCC(C)C)cccc12` [Compound R-YK1612, (R)-5-((2-isopentyl-1,4-diazacycloheptan-1-yl)sulfonyl)-1-methoxyisoquinoline] here?
A: 232.61 ± 9.70 pg/mL

Q: And the “expression of endothelin … (2 μM)” value (endothelin (ET-1))?
A: 229.98 ± 11.41 pg/mL

Q: What about the “expression of endothelin … (10 μM)” value (endothelin (ET-1)) of the same compound?
A: 249.23 ± 0.75 pg/mL

Q: And the “expression of prostacyclin … (0.4 μM)” value (prostacyclin (PGI2))?
A: 269.40 ± 8.89 pg/mL

Q: What about the “expression of prostacyclin … (2 μM)” value (prostacyclin (PGI2)) of the same compound?
A: 269.35 ± 8.69 pg/mL

Q: And the “expression of prostacyclin … (10 μM)” value (prostacyclin (PGI2))?
A: 257.44 ± 4.48 pg/mL

Q: For `O=S(=O)(c1cccc2cnccc12)N1CCCNCC1` [Fasudil hydrochloride, reference compound], which “expression of endothelin … (0.4 μM)” value (endothelin (ET-1)) is on record?
A: 254.29 ± 3.35 pg/mL

Q: And the “expression of endothelin … (2 μM)” value (endothelin (ET-1))?
A: 252.58 ± 3.92 pg/mL

Q: What about the “expression of endothelin … (10 μM)” value (endothelin (ET-1)) of the same compound?
A: 325.69 ± 9.78 pg/mL

Q: And the “effect on the expression and secretion of endothelin (in words)” value (endothelin (ET-1); high, medium and low doses)?
A: significantly promote the expression and secretion of endothelin

Q: And the “expression of prostacyclin … (0.4 μM)” value (prostacyclin (PGI2))?
A: 259.07 ± 40.07 pg/mL

Q: And the “expression of prostacyclin … (2 μM)” value (prostacyclin (PGI2))?
A: 208.85 ± 37.07 pg/mL

Q: And the “expression of prostacyclin … (10 μM)” value (prostacyclin (PGI2))?
A: 184.93 ± 1.09 pg/mL

Q: And the “effect on the expression of prostacyclin (in words)” value (prostacyclin (PGI2); low concentration)?
A: promoted the expression of prostacyclin

Q: And the “effect on the expression of prostacyclin (in words)” value (prostacyclin (PGI2); medium and high concentrations)?
A: inhibited the expression
